Values of other authors in patent EP1219295A1, “Controlled release formulation of valproate” (Abbott Laboratories, priority 2000, dated 2002).
Where two headings read alike, the source gives them in different places.

Assays:
[1] = in vivo

| Compound | patients affected by GI irritation [1] | half life (in adults) | half life (in children) |
| --- | --- | --- | --- |
| CCCC(CCC)C(=O)O [valproate] | up to one third |  |  |
| CCCC(CCC)C(=O)O [valproic acid, 2-Propylpentanoic acid] |  | six and seventeen | four and fourteen |
